From patent US20220308062A1, “METHODS FOR PREDICTING DRUG RESPONSIVENESS IN SAMPLES FROM CANCER SUBJECTS” (Board of Regents, The University of Texas System, priority 2019, published 2022)
“Also recorded” adds a separate entry of the source.

Assays:
H226 cells = assay: Proliferation assay (IncuCyte ZOOM), H226; type: cell-based; conditions: Homo sapiens, NCI-H226; H226 squamous cell cancer line; read-out: IC50 from proliferation curves
Protocol: Analysis was performed using IncuCyte ZOOM (Essen BioScience) with images acquired every 3 hr for up to 72 hr. Four images (proliferation) and one image (wound healing) were captured per well for each time point. Data were normalized to controls, and values for 50% effective concentration were calculated using Prism V7.0 (GraphPad software, San Diego, Calif.).

H2009 cells = assay: Atomic force microscopy, H2009; type: cell-based, human
Text: Atomic force microscopy. […] Briefly, live cells cultured were imaged in 60 mm dishes with a Nanoscope Catalyst AFM (Bruker, Billerica, Mass.) mounted on a Nikon Ti inverted epifluorescent microscope. […] To collect the nanomechanical phenotypes of single cells immersed in culture media, 30×30 μm images were captured with a resolution of 256×256 pixels using the PeakForce Quantitative Nanomechanical Mapping (QNM) AFM (Bruker, Billerica, Mass.). For imaging, […]-AIR (Bruker, Billerica, Mass.) probes were applied with the nominal spring constant 0.4 N/m. Following the Sneddon model and the Sokolov's rules, nanomechanical parameters were calculated with Nanoscope Analysis software v.1.7 (Bruker, Billerica, Mass.) using retrace images. Images of at least 15 cells representing each tested case in three biological replicates were collected.
Atomic force microscopy (AFM). […] Briefly, live cells cultured in 60 mm dishes were imaged with a Nanoscope Catalyst AFM (Bruker) mounted on a Nikon Ti inverted epifluorescent microscope. […] To collect the nanomechanical phenotypes of single cells immersed in culture media, 30×30 μm images were captured with a resolution of 256×256 pixels using the Peak Force Quantitative Nanomechanical Mapping (QNM) AFM (Bruker). For imaging, […]-AIR probes were used with the nominal spring constant 0.4 N/m. Following the Sneddon model and the Sokolov's rules, nanomechanical parameters were calculated with Nanoscope Analysis software v.1.7 using retrace images.

A549 and H2009 cells = assay: Capillary Western immunoassay (WES); type: cell-based, human
Protocol: Capillary Western immunoassay. Protein lysates of A549 lung cancer cells were prepared in radioimmunoprecipitation assay buffer (Thermo Fisher Scientific). Proteins with 12-230 kDa were analyzed in the Western immunoassay (WES) Separation Module of the quantitative capillary Western immunoassay system (ProteinSimple, San Jose, Calif.). The following antibodies were used: (i) β-catenin, AXL, AKT, C-RAF, p38 MAPK, MEK1/2, P42/44 MAPK, SMAD2/3, SMAD4, and GAPDH from Cell Signaling Technology (Danvers, Mass.); (ii) p-AXL from R&D Systems (Minneapolis, Minn.); (iii) vimentin, YAP1, TAZ, CK8/18 and CK19 from Novus Biologicals (Centennial, Colo.); (iv) N-cadherin from Abcam (Cambridge); (v) E-cadherin from BD Biosciences (San Jose, Calif.). Protein expression levels were normalized with that of GAPDH.
Capillary Western immunoassay (WES). Protein lysates of A549 and H2009 cells were prepared in radio-immunoprecipitation assay buffer (Thermo Fisher Scientific). Proteins were then analyzed in 12-230 and 66-440 kDa WES separation module of quantitative capillary Western immunoassay system (Protein Simple). The following antibodies were used: 1) AXL, AKT, JNK, p38 MAPK, MEK1/2, P42/44 MAPK, and GAPDH (Cell Signaling Technology); and 2) p-AXL and YAP1 (R&D Systems). Protein expression levels were normalized with GAPDH as loading controls.
Materials and methods. Capillary Western immunoassay (WES). Protein lysates of A549 and H2009 cells were prepared in radio-immunoprecipitation assay buffer (Thermo Fisher Scientific). Proteins were then analyzed in 12-230 and 66-440 kDa WES separation module of quantitative capillary Western immunoassay system (Protein Simple). Antibodies against AXL and GAPDH were (Cell Signaling Technology). Protein expression levels were normalized with GAPDH as loading controls.

A549 mouse xenograft = assay: Xenograft study of TP-0903 treatment; type: in vivo; conditions: oral 120 mg/kg twice weekly or 80 mg/kg daily
Protocol: (§1) Xenograft study of TP-0903 treatment. Mouse xenografts were implanted subcutaneously in the hind flank of the athymic nude mice. Tumor volumes were allowed to grow to a medium size (approximately 100 mm^3) before stratification and initiation of dosing. General health, tumor volumes, and bodyweights were followed over the course of the study.
as §1, with “grown” for “allowed to grow”, “(˜100” for “(approximately 100”, “dose initiation.” for “initiation of dosing.”

A549 lung cancer cells = assay: Luminex multi-cytokine assay; type: cell-based, human; conditions: A549, 40 nmol/L, 24, 48, 72 hr
Protocol: Luminex multi-cytokine assay. […] Condition medium was harvested in 24, 48 and 72 hr after incubation. Condition medium was then subjected to a cytokine assay by using MILLIPLEX® MAP Human Cytokine Panel 1 (38 Plex) (Millipore, HCYTA-60K-PXBK38) in Luminex™ FLEXMAP 3D™ Instrument System.

CN1CCN(Cc2ccc(Nc3ncc(Cl)c(Nc4ccccc4S(=O)(=O)N(C)C)n3)cc2)CC1 [TP-0903]
IC50 (H226 cells): 12.9 nM
deformation (H2009 cells; H2009): not significantly affected
increase of adhesion (H2009 cells; H2009, 40 nmol/L, 24 hr): 35%
increase of stiffness (H2009 cells; H2009, 40 nmol/L, 24 hr): 61%
AXL level (WES) (A549 and H2009 cells; A549, 40 nmol/L): down-regulated
cytokeratin 19 (CK19) level (A549 and H2009 cells; A549 and H2009, 40 nM): noticeable increase
vimentin level (A549 and H2009 cells; A549 and H2009, 40 nM): minor decrease
protein levels of AXL, phosphorylated AXL, SMAD2/3, SMAD4, YAP1, and TAZ (A549 and H2009 cells; A549 and H2009, 40 nmol/L): reduced
effect on body weight (A549 mouse xenograft): without any adverse effects
tumor size / growth (A549 mouse xenograft; 21 days): substantial tumor size regression; also recorded: Growth inhibition was confirmed
IL-8, VEGF, and IL-11 secretion (A549 lung cancer cells): decreased
